Experimental data taken from US20050014706A1, “Method of treating tuberculosis” (priority 2003, published 2005).
Values after ≈ are worked out from the molar mass of the structure shown. Read-outs that look alike come from different tables or passages of the source.

Tested on: M. tuberculosis H37Rv
Test: MIC vs. M. tuberculosis H37Rv, microplate Alamar Blue assay (MABA)
Assay type: cell-based
[1] = Table 3, parallel-synthesis carbazate library products
[2] = Table 1a, 11,12-carbamate derivatives, read-out: Anti-TB Activity MIC

SMILES	MIC [1]	other results
CC[C@H]1OC(=O)[C@H](C)[C@@H](O[C@H]2CC(C)(OC)[C@@H](O)[C@H](C)O2)[C@H](C)[C@@H](O[C@@H]2O[C@H](C)C[C@H](N(C)C)[C@H]2O)[C@](C)(OC)C[C@@H](C)C(=O)[C@H](C)[C@H]2N(NCc3cccn3-c3ccc(C(F)(F)F)cc3)C(=O)O[C@]12C (stereo partly shown) [F1′]	17.6 µM (≈ 17.8 µg/mL)	
CC[C@H]1OC(=O)[C@H](C)[C@@H](O[C@H]2CC(C)(OC)[C@@H](O)[C@H](C)O2)[C@H](C)[C@@H](O[C@@H]2O[C@H](C)C[C@H](N(C)C)[C@H]2O)[C@](C)(OC)C[C@@H](C)C(=O)[C@H](C)[C@H]2N(NCC3CSN=N3)C(=O)O[C@]12C (stereo partly shown) [G10′]	>16 µM	
CC[C@H]1OC(=O)[C@H](C)[C@@H](O[C@H]2CC(C)(OC)[C@@H](O)[C@H](C)O2)[C@H](C)[C@@H](O[C@@H]2O[C@H](C)C[C@H](N(C)C)[C@H]2O)[C@](C)(OC)C[C@@H](C)C(=O)[C@H](C)[C@H]2N(NCc3c(-c4ccccc4)noc3C)C(=O)O[C@]12C (stereo partly shown) [C10′]	12 µM (≈ 11.5 µg/mL)	
CC[C@H]1OC(=O)[C@H](C)[C@@H](O[C@H]2CC(C)(OC)[C@@H](O)[C@H](C)O2)[C@H](C)[C@@H](O[C@@H]2O[C@H](C)C[C@H](N(C)C)[C@H]2O)[C@](C)(OC)C[C@@H](C)C(=O)[C@H](C)[C@H]2N(NCc3[nH]ncc3Br)C(=O)O[C@]12C (stereo partly shown) [D1′]	23 µM (≈ 21.8 µg/mL)	
CC[C@H]1OC(=O)[C@H](C)[C@@H](O[C@H]2CC(C)(OC)[C@@H](O)[C@H](C)O2)[C@H](C)[C@@H](O[C@@H]2O[C@H](C)C[C@H](N(C)C)[C@H]2O)[C@](C)(OC)C[C@@H](C)C(=O)[C@H](C)[C@H]2N(NCc3cncn3C)C(=O)O[C@]12C (stereo partly shown) [B5′]	>27 µM	
CC[C@H]1OC(=O)[C@H](C)[C@@H](O[C@H]2CC(C)(OC)[C@@H](O)[C@H](C)O2)[C@H](C)[C@@H](O[C@@H]2O[C@H](C)C[C@H](N(C)C)[C@H]2O)[C@](C)(OC)C[C@@H](C)C(=O)[C@H](C)[C@H]2N(NCc3ccc(N4CCC(c5ccccc5OC)CC4)c([N+](=O)[O-])c3)C(=O)O[C@]12C (stereo partly shown) [G12′]	19 µM (≈ 21.1 µg/mL)	
CC[C@H]1OC(=O)[C@H](C)[C@@H](O[C@H]2CC(C)(OC)[C@@H](O)[C@H](C)O2)[C@H](C)[C@@H](O[C@@H]2O[C@H](C)C[C@H](N(C)C)[C@H]2O)[C@](C)(OC)C[C@@H](C)C(=O)[C@H](C)[C@H]2N(NCc3c[nH]c(=O)[nH]c3=O)C(=O)O[C@]12C (stereo partly shown) [E8′]	>20 µM	
CC[C@H]1OC(=O)[C@H](C)C(=O)[C@H](C)[C@@H](O[C@@H]2O[C@H](C)C[C@H](N(C)C)[C@H]2O)[C@](C)(OC)C[C@@H](C)C(=O)[C@H](C)[C@H]2N(CCCn3cnc4c3c(=O)n(C)c(=O)n4C)C(=O)O[C@]12C [RU66740]		MIC [2]: >128 µM
CC[C@H]1OC(=O)[C@H](C)[C@@H](O[C@H]2CC(C)(OC)[C@@H](O)[C@H](C)O2)[C@H](C)[C@@H](O[C@@H]2O[C@H](C)C[C@H](N(C)C)[C@H]2O)[C@](C)(OC)C[C@@H](C)C(=O)[C@H](C)[C@H]2N(NCc3nccn3C)C(=O)O[C@]12C (stereo partly shown) [B3′]	>18 µM	
CC[C@H]1OC(=O)[C@H](C)[C@@H](O[C@H]2CC(C)(OC)[C@@H](O)[C@H](C)O2)[C@H](C)[C@@H](O[C@@H]2O[C@H](C)C[C@H](N(C)C)[C@H]2O)[C@](C)(OC)C[C@@H](C)C(=O)[C@H](C)[C@H]2N(NCc3nc4ccccc4s3)C(=O)O[C@]12C (stereo partly shown) [F7′]	16 µM (≈ 15 µg/mL)	
CC[C@H]1OC(=O)[C@H](C)C(=O)[C@H](C)[C@@H](O[C@@H]2O[C@H](C)C[C@H](N(C)C)[C@H]2O)[C@](C)(OC)C[C@@H](C)C(=O)[C@H](C)[C@H]2N(CCCCn3cnc(-c4cccnc4)c3)C(=O)O[C@]12C [Telithromycin, reference compound]		MIC [2]: 48 µM (≈ 39 µg/mL); MIC / activity vs. M. tuberculosis in words (in vitro): even less active than clarithromycin
CC[C@H]1OC(=O)[C@H](C)C(=O)[C@H](C)[C@@H](O[C@@H]2O[C@H](C)C[C@H](N(C)C)[C@H]2O)[C@](C)(OC)C[C@@H](C)C(=NOCOCCOC)[C@H](C)[C@@H](O)[C@]1(C)O [RU54615]		MIC (Table 2a, 11,12-diols, read-out: Anti-TB Activity MIC): >128 µM
CC[C@H]1OC(=O)[C@H](C)[C@@H](O[C@H]2CC(C)(OC)[C@@H](O)[C@H](C)O2)[C@H](C)[C@@H](O[C@@H]2O[C@H](C)C[C@H](N(C)C)[C@H]2O)[C@](C)(OC)C[C@@H](C)C(=O)[C@H](C)[C@H]2N(/N=C/c3cc(-c4cccs4)on3)C(=O)O[C@]12C (stereo partly shown) [C8′]	?9 μM	
CC[C@H]1OC(=O)[C@H](C)[C@@H](O[C@H]2CC(C)(OC)[C@@H](O)[C@H](C)O2)[C@H](C)[C@@H](O[C@@H]2O[C@H](C)C[C@H](N(C)C)[C@H]2O)[C@](C)(OC)C[C@@H](C)C(=O)[C@H](C)[C@H]2N(NCc3cn(Cc4ccccc4)c4ccccc34)C(=O)O[C@]12C (stereo partly shown) [C2′]	7 µM (≈ 7.05 µg/mL)	
CC[C@H]1OC(=O)[C@H](C)C(=O)[C@H](C)[C@@H](O[C@@H]2O[C@H](C)C[C@H](N(C)C)[C@H]2O)[C@](C)(OC)C[C@@H](C)C(=O)[C@H](C)[C@H]2N(CCCCn3ccnc3)C(=O)O[C@]12C [RU61205]		MIC [2]: 112 µM (≈ 82.3 µg/mL)
CC[C@H]1OC(=O)[C@H](C)[C@@H](O[C@H]2CC(C)(OC)[C@@H](O)[C@H](C)O2)[C@H](C)[C@@H](O[C@@H]2O[C@H](C)C[C@H](N(C)C)[C@H]2O)[C@](C)(OC)C[C@@H](C)C(=O)[C@H](C)[C@H]2N(NCc3cc(C(=O)OC)c(C)o3)C(=O)O[C@]12C (stereo partly shown) [A12′]	>12 µM	
CC[C@H]1OC(=O)[C@H](C)[C@@H](O[C@H]2CC(C)(OC)[C@@H](O)[C@H](C)O2)[C@H](C)[C@@H](O[C@@H]2O[C@H](C)C[C@H](N(C)C)[C@H]2O)[C@](C)(OC)C[C@@H](C)C(=O)[C@H](C)[C@H]2N(NCc3ccc([N+](=O)[O-])o3)C(=O)O[C@]12C (stereo partly shown) [A8′]	>9 µM	
CC[C@H]1OC(=O)[C@H](C)[C@@H](O[C@H]2CC(C)(OC)[C@@H](O)[C@H](C)O2)[C@H](C)[C@@H](O[C@@H]2O[C@H](C)C[C@H](N(C)C)[C@H]2O)[C@](C)(OC)C[C@@H](C)C(=O)[C@H](C)[C@H]2N(NCc3cccn3CCC#N)C(=O)O[C@]12C (stereo partly shown) [E10′]	20 µM (≈ 18.4 µg/mL)	
CC[C@H]1OC(=O)[C@H](C)[C@@H](O[C@H]2CC(C)(OC)[C@@H](O)[C@H](C)O2)[C@H](C)[C@@H](O[C@@H]2O[C@H](C)C[C@H](N(C)C)[C@H]2O)[C@](C)(OC)C[C@@H](C)C(=O)[C@H](C)[C@H]2N(NCc3c(Sc4ccc(Cl)cc4)nc4sccn34)C(=O)O[C@]12C (stereo partly shown) [H11′]	35.4 µM (≈ 37.8 µg/mL)	
CC[C@H]1OC(=O)[C@H](C)[C@@H](O[C@H]2CC(C)(OC)[C@@H](O)[C@H](C)O2)[C@H](C)[C@@H](O[C@@H]2O[C@H](C)C[C@H](N(C)C)[C@H]2O)[C@](C)(OC)C[C@@H](C)C(=O)[C@H](C)[C@H]2N(NCc3sccc3Oc3ccccc3)C(=O)O[C@]12C (stereo partly shown) [G4′]	13 µM (≈ 12.7 µg/mL)	
CC[C@H]1OC(=O)[C@H](C)[C@@H](O[C@H]2CC(C)(OC)[C@@H](O)[C@H](C)O2)[C@H](C)[C@@H](O[C@@H]2O[C@H](C)C[C@H](N(C)C)[C@H]2O)[C@](C)(OC)C[C@@H](C)C(=O)[C@H](C)[C@H]2N(NCCCc3ccccc3)C(=O)O[C@]12C (stereo partly shown) [A2′]	10 µM (≈ 9.06 µg/mL)	
CC[C@H]1OC(=O)[C@H](C)[C@@H](O[C@H]2CC(C)(OC)[C@@H](O)[C@H](C)O2)[C@H](C)[C@@H](O[C@@H]2O[C@H](C)C[C@H](N(C)C)[C@H]2O)[C@](C)(OC)C[C@@H](C)C(=O)[C@H](C)[C@H]2N(NCc3ccoc3)C(=O)O[C@]12C (stereo partly shown) [A10′]	>7 µM	
CC[C@H]1OC(=O)[C@H](C)[C@@H](O[C@H]2CC(C)(OC)[C@@H](O)[C@H](C)O2)[C@H](C)[C@@H](O[C@@H]2O[C@H](C)C[C@H](N(C)C)[C@H]2O)[C@](C)(OC)C[C@@H](C)C(=O)[C@H](C)[C@H]2N(/N=C/c3cnc(-c4ccccc4)nc3C)C(=O)O[C@]12C (stereo partly shown) [E6′]	5 µM (≈ 4.84 µg/mL)	
CC[C@H]1OC(=O)[C@H](C)[C@@H](O[C@H]2CC(C)(OC)[C@@H](O)[C@H](C)O2)[C@H](C)[C@@H](O[C@@H]2O[C@H](C)C[C@H](N(C)C)[C@H]2O)[C@](C)(OC)C[C@@H](C)C(=O)[C@H](C)[C@H]2N(NCc3cccc4nsnc34)C(=O)O[C@]12C (stereo partly shown) [H3′]	>22 µM	
CC[C@H]1OC(=O)[C@H](C)[C@@H](O[C@H]2CC(C)(OC)[C@@H](O)[C@H](C)O2)[C@H](C)[C@@H](O[C@@H]2O[C@H](C)C[C@H](N(C)C)[C@H]2O)[C@](C)(OC)C[C@@H](C)C(=O)[C@H](C)[C@H]2N(NCc3cn(S(=O)(=O)c4ccc(C)cc4)c4ccccc34)C(=O)O[C@]12C (stereo partly shown) [C4′]	11 µM (≈ 11.8 µg/mL)	
CC[C@H]1OC(=O)[C@H](C)[C@@H](O[C@H]2CC(C)(OC)[C@@H](O)[C@H](C)O2)[C@H](C)[C@@H](O[C@@H]2O[C@H](C)C[C@H](N(C)C)[C@H]2O)[C@](C)(OC)C[C@@H](C)C(=O)[C@H](C)[C@H]2N(NCc3cnn(-c4ccc(F)cc4)c3C)C(=O)O[C@]12C (stereo partly shown) [D7′]	13 µM (≈ 12.7 µg/mL)	
CC[C@H]1OC(=O)[C@H](C)[C@@H](O[C@H]2CC(C)(OC)[C@@H](O)[C@H](C)O2)[C@H](C)[C@@H](O[C@@H]2O[C@H](C)C[C@H](N(C)C)[C@H]2O)[C@](C)(OC)C[C@@H](C)C(=O)[C@H](C)[C@H]2N(NCc3cc(Cl)cc(Br)c3O)C(=O)O[C@]12C (stereo partly shown) [G8′]	14 µM (≈ 14.1 µg/mL)	
CC[C@H]1OC(=O)[C@H](C)[C@@H](O[C@H]2CC(C)(OC)[C@@H](O)[C@H](C)O2)[C@H](C)[C@@H](O[C@@H]2O[C@H](C)C[C@H](N(C)C)[C@H]2O)[C@](C)(OC)C[C@@H](C)C(=O)[C@H](C)[C@H]2N(NCC3=Cc4ccccc4OC3)C(=O)O[C@]12C (stereo partly shown) [G6′]	11 µM (≈ 10.3 µg/mL)	
CC[C@H]1OC(=O)[C@H](C)[C@@H](O[C@H]2CC(C)(OC)[C@@H](O)[C@H](C)O2)[C@H](C)[C@@H](O[C@@H]2O[C@H](C)C[C@H](N(C)C)[C@H]2O)[C@](C)(OC)C[C@@H](C)C(=O)[C@H](C)[C@H]2N(NCc3ccnc4ccccc34)C(=O)O[C@]12C (stereo partly shown) [D11′]	16 µM (≈ 14.9 µg/mL)	
CC[C@H]1OC(=O)[C@H](C)[C@@H](O[C@H]2CC(C)(OC)[C@@H](O)[C@H](C)O2)[C@H](C)[C@@H](O[C@@H]2O[C@H](C)C[C@H](N(C)C)[C@H]2O)[C@](C)(OC)C[C@@H](C)C(=O)[C@H](C)[C@H]2N(NCc3c[nH]nc3-c3ccc(F)cc3)C(=O)O[C@]12C (stereo partly shown) [D5′]	25 µM (≈ 24.1 µg/mL)	
